system: MCF7; assay: Antiproliferative activity against human MCF7 cells assessed as inhibition of cell growth at 50 uM by MTT assay relative to control; format: functional

Structure (SMILES)	inhibition at 50 µM [%]
COc1ccc(/C=N/NC(=O)c2ccc(NC(=O)Nc3ccc4ncccc4c3)cc2)cc1	37.7
Cc1cccc(/C=N/NC(=O)c2ccc3ncccc3c2)c1	50.1
Cc1cc(C)cc(/C=N/NC(=O)c2cccc3ncccc23)c1	68.5
Cc1cccc(/C=N/NC(=O)c2ccc(NC(=O)Nc3ccc4ncccc4c3)cc2)c1	68.2
CCC/C=N/NC(=O)c1ccc2ncccc2c1	65.1
O=C(Nc1ccc(C(=O)N/N=C/c2ccc(Cl)cc2Cl)cc1)Nc1ccc2ncccc2c1	70.2
COc1ccc(/C=N/NC(=O)c2ccc3ncccc3c2)cc1	66.2
O=C(N/N=C/c1cccs1)c1cccc2ncccc12	45.7
O=C(N/N=C/c1cc(Cl)nc2ccccc12)c1ccc2ncccc2c1	44.1
Cc1ccc(F)cc1/C=N/NC(=O)c1ccc(NC(=O)Nc2cccc3ncccc23)cc1	68.3
COc1cccc(/C=N/NC(=O)c2ccc(NC(=O)Nc3ccc4ncccc4c3)cc2)c1	1.99
O=C(N/N=C/c1ccnc2ccccc12)c1ccc2ncccc2c1	55.3
O=C(N/N=C/c1cc(Cl)ccc1Cl)c1ccc2ncccc2c1	64.7
O=C(Nc1ccc(C(=O)N/N=C/c2ccc(Cl)cc2Cl)cc1)Nc1cccc2ncccc12	74.6
CCC/C=N/NC(=O)c1ccc(NC(=O)Nc2ccc3ncccc3c2)cc1	46.6
O=C(Nc1ccc(C(=O)N/N=C/c2c[nH]c3ccccc23)cc1)Nc1cccc2ncccc12	30.2
O=C(N/N=C/c1ccccc1)c1ccc2ncccc2c1	64.9
O=C(O)c1ccc(/C=N/NC(=O)c2ccc3ncccc3c2)cc1	48
O=C(Nc1ccc(C(=O)N/N=C/c2ccc(Cl)cc2)cc1)Nc1ccc2ncccc2c1	66.4
O=C(Nc1ccc(C(=O)N/N=C/c2cccs2)cc1)Nc1ccc2ncccc2c1	15.1
Cc1ccc(/C=N/NC(=O)c2cccc3ncccc23)cc1	60.5

Structure (SMILES)	inhibition at 50 µM [%]
Cc1ccccc1/C=N/NC(=O)c1cccc2ncccc12	65.3
O=C(N/N=C/c1ccc(F)cc1F)c1ccc2ncccc2c1	70.8
O=C(N/N=C/c1ccco1)c1cccc2ncccc12	50.9
O=C(N/N=C/c1ccc(F)cc1)c1ccc2ncccc2c1	60.1
Cc1ccc(F)cc1/C=N/NC(=O)c1ccc2ncccc2c1	73.5
O=C(Nc1ccc(C(=O)N/N=C/c2ccnc3ccccc23)cc1)Nc1ccc2ncccc2c1	1.11
O=C(Nc1ccc(C(=O)N/N=C/c2ccc(F)cc2F)cc1)Nc1ccc2ncccc2c1	23.2
COc1ccc(/C=N/NC(=O)c2ccc3ncccc3c2)c(O)c1	71.2
COc1ccc(/C=N/NC(=O)c2cccc3ncccc23)cc1	67.9
COc1ccc(/C=N/NC(=O)c2ccc(NC(=O)Nc3ccc4ncccc4c3)cc2)c(O)c1	1.01
O=C(Nc1ccc(C(=O)N/N=C/c2ccc(F)cc2F)cc1)Nc1cccc2ncccc12	73.3
CC(C)c1ccc(/C=N/NC(=O)c2ccc(NC(=O)Nc3cccc4ncccc34)cc2)cc1	65.9
O=C(N/N=C/c1ccccc1)c1cccc2ncccc12	69.3
Cc1cc(C)cc(/C=N/NC(=O)c2ccc3ncccc3c2)c1	55.2
COc1cc(/C=N/NC(=O)c2ccc(NC(=O)Nc3ccc4ncccc4c3)cc2)cc(OC)c1	56.4
O=C(Nc1ccc(C(=O)N/N=C/c2ccc(Cl)cc2)cc1)Nc1cccc2ncccc12	53.4
O=C(Nc1ccc(C(=O)N/N=C/c2cc(Cl)nc3ccccc23)cc1)Nc1ccc2ncccc2c1	65.4
O=C(N/N=C/c1ccco1)c1ccc2ncccc2c1	41.8
O=C(Nc1ccc(C(=O)N/N=C/c2ccco2)cc1)Nc1ccc2ncccc2c1	56.2
COc1ccc(/C=N/NC(=O)c2ccc(NC(=O)Nc3cccc4ncccc34)cc2)cc1	72.3
